Laboratory results published in US9643971B2 (GALLEON PHARMACEUTICALS, INC., priority 2013, dated 2017).
Structures can show the parent of a compound that is named as a salt.

System: anesthetized rat
Assay: Anesthetized rat spirometry screening assay
Format: in vivo
Settings: 2 minute AUC of minute volume increase vs. comparator N-[2,6-di-(n-propylamino)-[1,3]pyrimidin-4-yl]-N,O-dimethyl-hydroxylamine
From the text: Effect of Compounds of the Invention on Respiratory Rate (RR), Tidal Volume (VT), and the Product Minute Volume Using an Anesthetized Rat Spirometry Screening Assay
Anesthetized rats provide a quick method of screening compounds for respiratory and cardiovascular activity. In contrast to the conscious rat model, this model offers an experimental set up with less variation in the baseline cardiovascular and respiratory measures. Compounds screened in this assay may be examined in a conscious rat model.
Rats were initially anesthetized with 3% isoflurane (inhaled) and femoral artery and vein cannulas were surgically inserted. Once cannulated, the rats were transitioned to urethane anesthesia (1.5 g/kg; i.v.) and a tracheal cut-down was performed. After placing the tracheal cannula, it was connected to a pneumotachometer to record respiratory airflow from which respiratory rate (RR), tidal volume (VT), and their product minute volume were derived. After the surgical preparation was complete, animals were allowed to stabilize for 30 minutes while respiratory rate, tidal volume, minute volume, blood pressure and heart rate were recorded continuously. Arterial blood gases (ABG) were obtained from arterial blood collected from the femoral artery. ABG measurements were taken before and 6 minutes after vehicle and each dose of compound administered. Compounds being screened were administered via bolus injections through the venous cannula followed by a saline flush (total time of administration is approximately 30 seconds), and the animal was monitored for at least 6 minutes for changes in cardiovascular efforts. Compounds were prepared in formulations identified to ensure optimal solubility. As such, vehicle controls were matched for the formulation of each compound tested. Dosing of the compound being screened was 0.1 and 0.3 mg/kg. The next dose was not administered until all cardiovascular and respiratory measures had returned to baseline levels. The positive control compounds used were N-[4,6-di-(n-propylamino)-[1,3,5]triazin-2-yl]-N,O-dimethyl-hydroxylamine or N-[2,6-di-(n-propylamino)-[1,3]pyrimidin-4-yl]-N,O-dimethyl-hydroxylamine (both administered at the end of each screening experiment (0.3 mg/kg dose) to validate the experiment and also to serve as a measure with which the compound being screened could be compared.
Data were analyzed by collecting cardiovascular and respiratory data in 30 second averages (BINs). Data were plotted 2 minutes before challenge and then 6 minutes after challenge.

| SMILES | AUC MV Inc (2 min) (ratio vs. std*) [ratio vs. std] |
| --- | --- |
| CCCN(C)c1nc(N)c2nc(N(C)C)nc(NC)c2n1.Cl [Compound 56a, N^2,N^2,N^4,N^6-Tetramethyl-N^6-n-propyl-pyrimido[5,4-d]pyrimidine-2,4,6,8-tetraamine hydrochloride] | 0.79 |
| C=CCN(CC=C)c1nc(NC)c2nc(NCCC)nc(NC)c2n1 [Compound 58a, N^2,N^2-Diallyl-N^4,N^8-dimethyl-N^6-n-propyl-pyrimido[5,4-d]pyrimidine-2,4,6,8-tetraamine] | 0.18 |
| CCCNc1nc(NC)c2nc(NCCOC(C)C)nc(NC)c2n1 [Compound 62a, N^2-(2-Isopropoxy-ethyl)-N^4,N^8-dimethyl-N^6-n-propyl-pyrimido[5,4-d]pyrimidine-2,4,6,8-tetraamine] | 0.55 |
| CCCNc1nc(NC)c2nc(N(C)CCN(C)C)nc(NC)c2n1 [Compound 64a, 2-[N-(2-Dimethylamino-ethyl)-N-methyl]amino-N^4,N^8-dimethyl-N^6-n-propyl-pyrimido[5,4-d]pyrimidine-4,6,8-triamine] | 0.01 |
| CCCNc1nc(NC)c2nc(N(CCO)CCO)nc(NC)c2n1.Cl [Compound 66a, 2-[(4,8-Bis-methylamino-6-n-propylamino-pyrimido[5,4-d]pyrimidin-2-yl)-(2-hydroxy-ethyl)-amino]-ethanol hydrochloride] | 0.14 |
| CCCNc1nc(NC)c2nc(N(CCOC)CCOC)nc(NC)c2n1 [Compound 68a, N^2,N^2-Bis-(2-methoxyethyl)-N^4,N^8-dimethyl-N^6-n-propyl-pyrimido[5,4-d]pyrimidine-2,4,6,8-tetraamine] | 0.00 |
| CCCNc1nc(NC)c2nc(N3CCS(=O)(=O)CC3)nc(NC)c2n1.Cl [Compound 75a, N^2-6-n-Propylamino-N^4,N^8-dimethyl-2-(1,1-dioxo-thiomorpholin-4-yl)-pyrimido-[5,4-d]pyrimidine-2,4,8-triamine hydrochloride] | 0.02 |
| CCCNc1nc(NC)c2nc(N3CCC(F)(F)CC3)nc(NC)c2n1 [Compound 77a, N^2-n-Propyl-N^4,N^8-dimethyl-6-(4,4-difluoro-piperidin-1-yl)-pyrimido[5,4-d]pyrimidine-2,4,8-triamine hydrochloride] | 0.55 |
| CNc1nc(NCC(C)C)nc2c(NC)nc(NCC(C)C)nc12.Cl [Compound 87a, N^2,N^6-Diisobutyl-N^4,N^8-dimethyl-pyrimido[5,4-d]pyrimidine-2,4,6,8-tetraamine hydrochloride] | 0.18 |
| C=CCNc1nc(NC)c2nc(NCC=C)nc(NC)c2n1.Cl [Compound 89a, N^2,N^6-Diallyl-N^4,N^8-dimethyl-pyrimido[5,4-d]pyrimidine-2,4,6,8-tetraamine hydrochloride] | 0.92 |
| CCCNc1nc(NC)c2nc(OCCC)nc(NC)c2n1 [Compound 95a, N^4,N^8-Dimethyl-6-propoxy-N^2-n-propyl-pyrimido[5,4-d]pyrimidine-2,4,8-triamine] | 0.36 |
| CCCNc1nc(NC)c2nc(SCCC)nc(NC)c2n1 [Compound 97a, N^4,N^8-Dimethyl-N^2-n-propyl-6-propylsulfanyl-pyrimido[5,4-d]pyrimidine-2,4,8-triamine] | 0.26 |
| CCCNc1nc(NC)c2nc(OCc3ccccc3)nc(NC)c2n1 [Compound 99a, 6-Benzyloxy-N^4,N^8-Dimethyl-N^2-n-propyl-pyrimido[5,4-d]pyrimidine-2,4,8-triamine] | 0.19 |
| CCCNc1nc(NC)c2nc(O)nc(NC)c2n1 [Compound 101, 4,8-Bis-methylamino-6-propylamino-pyrimido[5,4-d]pyrimidin-2-ol] | 0.00 |
| CCCNc1nc(NC)c2nc(C#N)nc(NC)c2n1 [Compound 103a, 4,8-Bis-methylamino-6-n-propylamino-pyrimido[5,4-d]pyrimidine-2-carbonitrile] | 0.00 |
| CCCNc1nc(NC)c2nc(CN)nc(NC)c2n1 [Compound 105a, N^4,N^8-Dimethyl-N^2-n-propyl-6-(aminomethyl)-pyrimido[5,4-d]pyrimidine-2,4,8-triamine] | 0.00 |
| CCCNc1nc(NC)c2nc(C(N)=O)nc(NC)c2n1 [Compound 107a, 6-Carbamoyl-N^4,N^8-dimethyl-N^2-n-propyl-pyrimido[5,4-d]pyrimidine-2,4,8-triamine] | 0.00 |
| CCCN=C(N)c1nc(NC)c2nc(NCCC)nc(NC)c2n1 [Compound 110a, N-(n-Propyl)-[4,8-Bis-methylamino-6-n-propylamino-pyrimido[5,4-d]pyrimidin-2-yl]-amidine] | 0.00 |
| CCCNc1nc(NC)c2ncnc(NC)c2n1 [Compound 116a, N^4,N^8-Dimethyl-N^2-n-propyl-pyrimido[5,4-d]pyrimidine-2,4,8-triamine] | 0.00 |
| CCCNc1nc(NC)nc2c(NCCC)nc(C#N)nc12 [Compound 122a, 6-Methylamino-4,8-bis-n-propylamino-pyrimido[5,4-d]pyrimidine-2-carbonitrile] | 0.00 |
| CCNc1nc(NCC)c2nc(NCC)nc(NCC)c2n1.Cl [Compound 125a, N^2,N^4,N^6,N^8-Tetraethyl-pyrimido[5,4-d]pyrimidine-2,4,6,8-tetraamine hydrochloride] | 0.80 |
| CCCNc1nc(NCC)c2nc(NCCC)nc(NCC)c2n1 [Compound 127a, N^4,N^8-Diethyl-N^2,N^6-di-n-propyl-pyrimido[5,4-d]pyrimidine-2,4,6,8-tetraamine] | 0.86 |
| CCNc1nc(NCC2CC2)nc2c(NCC)nc(NCC3CC3)nc12 [Compound 129a, N^2,N^6-Bis-cyclopropylmethyl-N^4,N^8-diethyl-pyrimido[5,4-d]pyrimidine-2,4,6,8-tetraamine] | 0.25 |
| CCNc1nc(NCC2CC2)c2nc(N(CC)CC)nc(NCC3CC3)c2n1.Cl [Compound 135a, N^2,N^2,N^6-Triethyl-N^4,N^8-bis-cyclopropylmethyl-pyrimido[5,4-d]pyrimidine-2,4,6,8-tetraamine hydrochloride] | 0.00 |
| CCCNc1nc(N(C)C)nc2c(NCCC)nc(N(C)C)nc12 [Compound 142a, N^2,N^2,N^6,N^6-Tetramethyl-N^4,N^8-di-n-propyl-pyrimido[5,4-d]pyrimidine-2,4,6,8-tetraamine] | 0.05 |
| C=CCNc1nc(NCC=C)c2nc(N3CCN(Cc4ccc(F)cc4)CC3)nc(NCC=C)c2n1.Cl.Cl [Compound 148a, N^2,N^4,N^8-Triallyl-6-[4-(4-fluorobenzyl)-piperazin-1-yl]-pyrimido[5,4-d]pyrimidine-2,4,8-triamine dihydrochloride] | 0.00 |
| C=CCNc1nc(NCC=C)c2nc(N3CCN(C(c4ccc(F)cc4)c4ccc(F)cc4)CC3)nc(NCC=C)c2n1 [Compound 150a, N^2,N^4,N^8-Triallyl-6-{4-[bis-(4-fluorophenyl)-methyl]-piperazin-1-yl}-pyrimido[5,4-d]pyrimidine-2,4,8-triamine] | 0.00 |
| CCCNc1nc(N(CC)CC)nc2c(NCCC)nc(NCC)nc12 [Compound 152a, N^2,N^2,N^6-Triethyl-N^4,N^8-di-n-propyl-pyrimido[5,4-d]pyrimidine-2,4,6,8-tetraamine] | 0.00 |
| CCCNc1nc(NC)c2nc(NCC(=O)O)nc(NC)c2n1 [Compound 154, (4,8-bis-methylamino-6-n-propylamino-pyrimido[5,4-d]pyrimidin-2-ylamino)-acetic acid] | 0.00 |
| CCCNC(=O)CNc1nc(NC)c2nc(NCCC)nc(NC)c2n1.Cl [Compound 157a, N-n-Propyl-[2-(4,8-bis-methylamino-6-propylamino-pyrimido[5,4-d]pyrimidin-2-ylamino)]-acetamide hydrochloride] | 0.04 |

Same assay, conditions: peak minute ventilation increase; urethane-anesthetized rat, i.v. bolus, screening doses 0.1 and 0.3 mg/kg

| SMILES | VE Peak (% Inc.) |
| --- | --- |
| CCCNc1nc(NC)c2nc(N(C)CCN(C)C)nc(NC)c2n1 [Compound 64a, 2-[N-(2-Dimethylamino-ethyl)-N-methyl]amino-N^4,N^8-dimethyl-N^6-n-propyl-pyrimido[5,4-d]pyrimidine-4,6,8-triamine] | 9 |
| CCCNc1nc(NC)c2nc(N3CCS(=O)(=O)CC3)nc(NC)c2n1.Cl [Compound 75a, N^2-6-n-Propylamino-N^4,N^8-dimethyl-2-(1,1-dioxo-thiomorpholin-4-yl)-pyrimido-[5,4-d]pyrimidine-2,4,8-triamine hydrochloride] | 2 |
| CCCN=C(N)c1nc(NC)c2nc(NCCC)nc(NC)c2n1 [Compound 110a, N-(n-Propyl)-[4,8-Bis-methylamino-6-n-propylamino-pyrimido[5,4-d]pyrimidin-2-yl]-amidine] | 0 |
